From patent publication US20040037860A1, “Free nicotine based cosmetic composition and uses thereof” (COLUMBUS, priority 2001, published 2004)

Legend:
[1] = system: localized gynoid lipodystrophy of the thighs and of the buttocks (LGL); details: small dose, topical
Procedure: The applicant carried out a comparative trial intended to evaluate the efficacy of the composition of the invention, as a local topical application, in patients with gynoid lipodystrophy of the thighs and of the buttocks, in comparison with a placebo, considered as a control group. Concomitantly, the effects of the composition on the softness and firmness of the skin were assessed.
It is a randomized comparative double blind monocenter trial comprising two groups of treatment of localized gynoid lipodystrophy of the thighs and of the buttocks (LGL):
This trial lasted for 9 weeks and comprised a one-week inclusion phase, followed by an 8-week treatment phase. It was carried out in patients suffering from LGL.
Evaluation carried out during the inclusion visit, at D28, and at the final visit for the principal and secondary criteria.
1.-Measurement of the adipose panicle by ultrasound scan, measured with the aid of a wide probe, by looking at the great trochanter of each femur.
The probe was placed on a tripod, at the constant level of the ground for each subject. The measurement was carried out after acquiring the last possible image by detaching the probe from the skin plane.

[2] = no significant difference in weight versus placebo at D28 or D56

## CN1CCCC1c1cccnc1 (centres unmarked) [Nicotine, nicotine]
[1]
  reduction of the thickness of localized gynoid lipodystrophy (cellulite), on average: 8.9%
[2]
  overall slimming effect: no overall slimming effect
